Values after ≈ are worked out from the molar mass of the structure shown.
How the values were obtained:
[1] = biological target: T1, purified human FAS (Homo sapiens, UniProt P49327); assay: FAS enzymatic activity (malonyl-CoA dependent NADPH oxidation, OD340); assay type: biochemical; conditions: purified human FAS from ZR-75-1 cells
T1 construct: Human FAS was purified from cultured ZR-75-1 human breast cancer cells; endogenous in cells; host or cells: ZR-75-1 human breast cancer cells (ATCC); Purified by hypotonic lysis, PEG precipitations and Mono Q anion exchange
T1 sequence (P49327 whole entry): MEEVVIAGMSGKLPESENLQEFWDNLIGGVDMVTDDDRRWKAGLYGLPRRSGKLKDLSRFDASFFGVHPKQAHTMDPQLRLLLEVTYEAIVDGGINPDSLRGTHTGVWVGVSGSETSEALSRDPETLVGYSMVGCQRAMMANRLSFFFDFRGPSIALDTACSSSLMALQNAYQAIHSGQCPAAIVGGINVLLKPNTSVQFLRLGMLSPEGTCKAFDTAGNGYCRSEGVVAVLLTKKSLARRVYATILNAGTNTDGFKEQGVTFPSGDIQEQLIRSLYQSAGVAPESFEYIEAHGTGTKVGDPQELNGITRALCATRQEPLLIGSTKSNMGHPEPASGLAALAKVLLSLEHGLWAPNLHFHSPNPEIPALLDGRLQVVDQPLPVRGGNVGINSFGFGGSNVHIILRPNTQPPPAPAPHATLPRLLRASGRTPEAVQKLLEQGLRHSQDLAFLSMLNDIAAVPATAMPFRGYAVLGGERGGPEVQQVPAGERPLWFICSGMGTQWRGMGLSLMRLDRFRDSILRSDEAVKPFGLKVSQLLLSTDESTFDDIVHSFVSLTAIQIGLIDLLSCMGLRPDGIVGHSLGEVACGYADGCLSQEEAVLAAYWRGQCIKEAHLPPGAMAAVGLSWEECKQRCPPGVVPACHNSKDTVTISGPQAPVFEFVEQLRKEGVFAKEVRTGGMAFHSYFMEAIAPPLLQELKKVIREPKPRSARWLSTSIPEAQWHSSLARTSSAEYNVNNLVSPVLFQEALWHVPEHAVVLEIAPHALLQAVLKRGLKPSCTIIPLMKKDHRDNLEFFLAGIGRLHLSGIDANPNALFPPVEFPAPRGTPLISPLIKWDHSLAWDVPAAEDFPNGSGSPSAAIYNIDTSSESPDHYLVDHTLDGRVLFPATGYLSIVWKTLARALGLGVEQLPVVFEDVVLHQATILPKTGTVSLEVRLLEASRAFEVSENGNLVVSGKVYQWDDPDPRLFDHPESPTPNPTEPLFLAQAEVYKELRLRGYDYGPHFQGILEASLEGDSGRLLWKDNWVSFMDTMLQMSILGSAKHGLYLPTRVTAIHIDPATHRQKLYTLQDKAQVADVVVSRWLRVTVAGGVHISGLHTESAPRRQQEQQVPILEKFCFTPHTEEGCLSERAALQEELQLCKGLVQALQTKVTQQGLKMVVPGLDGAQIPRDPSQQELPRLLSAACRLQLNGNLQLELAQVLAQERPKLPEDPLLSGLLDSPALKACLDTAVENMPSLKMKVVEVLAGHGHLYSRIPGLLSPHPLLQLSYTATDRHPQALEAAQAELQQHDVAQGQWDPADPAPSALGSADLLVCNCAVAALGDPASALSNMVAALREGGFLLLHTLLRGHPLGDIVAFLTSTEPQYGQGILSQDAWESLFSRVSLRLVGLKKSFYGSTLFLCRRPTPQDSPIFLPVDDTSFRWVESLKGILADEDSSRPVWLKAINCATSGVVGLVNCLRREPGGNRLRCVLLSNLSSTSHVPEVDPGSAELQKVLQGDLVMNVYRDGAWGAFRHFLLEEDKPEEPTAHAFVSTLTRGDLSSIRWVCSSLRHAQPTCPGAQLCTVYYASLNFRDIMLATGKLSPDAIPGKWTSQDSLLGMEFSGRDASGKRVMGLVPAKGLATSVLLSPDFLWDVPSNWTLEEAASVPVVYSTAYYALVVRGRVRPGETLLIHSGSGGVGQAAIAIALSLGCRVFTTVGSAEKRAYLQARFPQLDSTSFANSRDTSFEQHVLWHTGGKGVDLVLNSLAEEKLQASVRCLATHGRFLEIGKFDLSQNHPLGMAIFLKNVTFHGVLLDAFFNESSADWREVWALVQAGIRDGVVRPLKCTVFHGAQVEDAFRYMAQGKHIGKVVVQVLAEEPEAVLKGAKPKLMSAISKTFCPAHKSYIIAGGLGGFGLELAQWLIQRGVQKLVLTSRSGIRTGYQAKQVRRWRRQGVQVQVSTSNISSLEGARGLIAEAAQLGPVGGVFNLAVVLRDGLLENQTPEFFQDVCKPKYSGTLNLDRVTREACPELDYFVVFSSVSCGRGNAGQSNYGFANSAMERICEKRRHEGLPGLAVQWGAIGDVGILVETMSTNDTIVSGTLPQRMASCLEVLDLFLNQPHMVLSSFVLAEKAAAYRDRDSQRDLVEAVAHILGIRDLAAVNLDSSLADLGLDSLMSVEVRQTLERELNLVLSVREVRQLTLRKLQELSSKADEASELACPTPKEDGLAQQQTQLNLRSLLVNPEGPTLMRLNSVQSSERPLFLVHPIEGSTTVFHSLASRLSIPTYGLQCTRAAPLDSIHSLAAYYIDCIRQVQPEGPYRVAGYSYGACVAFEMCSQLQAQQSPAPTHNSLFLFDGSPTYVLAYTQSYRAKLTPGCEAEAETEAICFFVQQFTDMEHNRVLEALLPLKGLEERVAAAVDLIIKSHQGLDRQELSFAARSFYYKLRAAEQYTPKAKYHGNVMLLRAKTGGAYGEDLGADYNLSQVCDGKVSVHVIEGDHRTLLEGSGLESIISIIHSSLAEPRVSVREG
Protocol: Purification of FAS from ZR-75-1 Human Breast Cancer Cells.
Human FAS was purified from cultured ZR-75-1 human breast cancer cells obtained from the American Type Culture Collection. The procedure, adapted from Linn et al., 1981, and Kuhajda et al., 1994, utilizes hypotonic lysis, successive polyethyleneglycol (PEG) precipitations, and anion exchange chromatography. ZR-75-1 cells are cultured at 37° C. with 5% CO2 in RPMI culture medium with 10% fetal bovine serum, penicillin and streptomycin.
Ten T150 flasks of confluent cells are lysed with 1.5 ml lysis buffer (20 mM Tris-HCl, pH 7.5, 1 mM EDTA, 0.1 mM phenylmethanesulfonyl fluoride (PMSF), 0.1% Igepal CA-630) and dounce homogenized on ice for 20 strokes. The lysate is centrifuged in JA-20 rotor (Beckman) at 20,000 rpm for 30 minutes at 4° C. and the supernatant is brought to 42 ml with lysis buffer. A solution of 50% PEG 8000 in lysis buffer is added slowly to the supernatant to a final concentration of 7.5%. After rocking for 60 minutes at 4° C., the solution is centrifuged in JA-20 rotor (Beckman) at 15,000 rpm for 30 minutes at 4° C. Solid PEG 8000 is then added to the supernatant to a final concentration of 15%. After the rocking and centrifugation is repeated as above, the pellet is resuspended overnight at 4° C. in 10 ml of Buffer A (20 mM K2HPO4, pH 7.4). […] FAS protein concentration is determined using the Coomassie Plus Protein Assay Reagent (Pierce) according to manufacturer's specifications using BSA as a standard. […]
FAS activity is measured by monitoring the malonyl-CoA dependent oxidation of NADPH spectrophotometrically at OD340 in 96-well plates (Dils et al and Arslanian et al, 1975). […]
The assay is performed on a Molecular Devices SpectraMax Plus Spectrophotometer. […] Using the kinetic protocol, the wells are blanked on duplicate wells containing 100 μl of 100 mM K2HPO4, pH 6.5 and the plate is read at OD340 at 10 sec intervals for 5 minutes to measure any malonyl-CoA independent oxidation of NADPH. […] The plate is read again as above with the kinetic protocol to measure the malonyl-CoA dependent NADPH oxidation. […]

[2] = system: MCF-7 human breast cancer cells; assay: [14C]acetate incorporation into total lipids; assay type: cell-based; conditions: MCF7
Protocol: Measurement of [^14 C]acetate Incorporation into Total Lipids and Determination of IC50 of Compounds
This assay measures the incorporation of [^14C]acetate into total lipids and is a measure of fatty acid synthesis pathway activity in vitro. It is utilized to measure inhibition of fatty acid synthesis in vitro.
MCF-7 human breast cancer cells cultured as above, are plated at 5×10^4 cells per well in 24-well plates. Following overnight incubation, the compounds to be tested, solubilized in DMSO, are added at 5, 10, and 20 μg/ml in triplicate, with lower concentrations tested if necessary. DMSO is added to triplicate wells for a vehicle control. C75 is run at 5 and 10 μg/ml in triplicate as positive controls. After 4 hours of incubation, 0.25 μCi of [^14C]acetate (10 μl volume) is added to each well.
After 2 hours of additional incubation, medium is aspirated from the wells and 800 μl of chloroform:methanol (2:1) and 700 μl of 4 mM MgCl2 is added to each well. Contents of each well are transferred to 1.5 Eppendorf tubes, and spun at full-speed for 2 minutes in a high-speed Eppendorf Microcentrifuge 5415D. After removal of the aqueous (upper) layer, an additional 700 μl of chloroform:methanol (2:1) and 500 μl of 4 mM MgCl2 are added to each tube and then centrifuged for 1 minutes as above. The aqueous layer is removed with a Pasteur pipette and discarded. An additional 400 μl of chloroform:methanol (2:1) and 200 μl of 4 mM MgCl2 are added to each tube, then centrifuged and aqueous layer is discarded. The lower (organic) phase is transferred into a scintillation vial and dried at 40° C. under N2 gas. Once dried, 3 ml of scintillant (APB #NBC5104) is added and vials are counted for ^14C. The Beckman Scintillation counter calculates the average cpm values for triplicates.
The IC50 for the compounds is defined as the concentration of drug leading to a 50% reduction in [^14C]acetate incorporation into lipids compared to controls. This is determined by plotting the average cpm for each inhibitor concentration tested, performing linear regression and computing the best-fit line, r^2 values, and 95% confidence intervals. The average cpm values are computed by the Beckman scintillation counter (Model LS6500) for each compound concentration. Computation of linear regression, best-fit line, r^2, and 95% confidence intervals are calculated using Prism Version 3.0 (Graph Pad Software).

[3] = system: FAO; assay: FAO SC 150 / FAO Max; conditions: for FAO Max: at the concentration given under E18

Row | FAS (IC50) [1] | IC50 [2] [µg/mL] | SMILES | FAO Max: concentration at which the maximum was seen [3] [µg/mL] | FAO SC 150 [3] | FAO Max [3] [% @]
1 | Neg | 39.8 ± 12.7 (≈ 93.6 µM) | CCCCCCCCC1(C)SC(=O)C=C1OCC(=O)NNc1ccccc1Cl (stereo not shown) [Compound 19, (5-Methyl-5-octyl-2-oxo-thiophen-4-yloxy)-acetic-acid-N′-(2-chlorophenyl)-hydrazide] | 0.125 | Neg | 90
2 | Neg | 17.4 (≈ 41.5 µM) | CCCCCCCCC1(C)SC(=O)C=C1OCC(=O)NNC(=O)c1ccncc1 (stereo not shown) [Compound 20] | 0.125 | Neg | 89

Reference: patent US20100168176A1, “NOVEL COMPOUNDS, PHARMACEUTICAL COMPOSITIONS CONTAINING SAME, AND METHODS OF USE FOR SAME” (FASGEN LLC, priority 2006, published 2010)
